# The NIST ThermoML archive (doi:10.1021/acs.jced.6b00210)
# Numbers after ± are expanded uncertainties.
# Experiments:
# [1] = 100 kPa, Liquid; for viscosity: Concentric cylinders viscometry; for mass density: Vibrating tube method
# [2] = xn = mol fraction of the nth substance listed; conditions: 100 kPa, Liquid, x2 = 0; for viscosity: Concentric cylinders viscometry; for mass density: Vibrating tube method
SMILES,viscosity ([1]; 293.15 K) [mPa·s],mass density ([1]; 293.15 K) [kg/m3],viscosity ([1]; 298.15 K) [mPa·s],mass density ([1]; 298.15 K) [kg/m3],viscosity ([1]; 303.15 K) [mPa·s],mass density ([1]; 303.15 K) [kg/m3],viscosity ([1]; 308.15 K) [mPa·s],mass density ([1]; 308.15 K) [kg/m3],viscosity ([1]; 313.15 K) [mPa·s],mass density ([1]; 313.15 K) [kg/m3],viscosity ([1]; 318.15 K) [mPa·s],mass density ([1]; 318.15 K) [kg/m3],viscosity ([1]; 323.15 K) [mPa·s],mass density ([1]; 323.15 K) [kg/m3],viscosity ([2]; 293.15 K) [mPa·s],mass density ([2]; 293.15 K) [kg/m3],viscosity ([2]; 298.15 K) [mPa·s],mass density ([2]; 298.15 K) [kg/m3],viscosity ([2]; 303.15 K) [mPa·s],mass density ([2]; 303.15 K) [kg/m3],also measured
CCC(C)O (stereo not drawn) [butan-2-ol],3.67 ± 0.44,806.7 ± 0.2,3.04 ± 0.37,802.7 ± 0.2,2.54 ± 0.31,798.4 ± 0.2,2.13 ± 0.26,794.1 ± 0.2,1.8 ± 0.22,789.8 ± 0.2,1.54 ± 0.19,785.2 ± 0.2,1.33 ± 0.16,780.6 ± 0.2,,,,,,,
CC(C)O [propan-2-ol],2.42 ± 0.29,785.4 ± 0.2,2.08 ± 0.25,781.1 ± 0.2,1.8 ± 0.22,776.8 ± 0.2,1.56 ± 0.19,772.4 ± 0.2,1.36 ± 0.16,768 ± 0.2,1.19 ± 0.14,763.4 ± 0.2,1.05 ± 0.13,758.8 ± 0.2,,,,,,,
Nc1ccccc1 [aniline],4.37 ± 0.53,1021.7 ± 0.3,3.8 ± 0.46,1017.4 ± 0.3,3.13 ± 0.38,1013.2 ± 0.3,2.75 ± 0.33,1009 ± 0.3,2.43 ± 0.29,1004.7 ± 0.3,2.14 ± 0.26,1000.4 ± 0.3,1.96 ± 0.24,995.5 ± 0.3,,,,,,,
CCC(C)O (stereo not drawn) [butan-2-ol] + Nc1ccccc1,,,,,,,,,,,,,,,3.67 ± 0.44,806.7 ± 0.2,3.04 ± 0.37,802.7 ± 0.2,2.54 ± 0.31,798.4 ± 0.2,viscosity ([2]; 308.15 K): 2.13 ± 0.26 mPa·s; mass density ([2]; 308.15 K): 794.1 ± 0.2 kg/m3; viscosity ([2]; 313.15 K): 1.8 ± 0.22 mPa·s; mass density ([2]; 313.15 K): 789.8 ± 0.2 kg/m3; viscosity ([2]; 318.15 K): 1.54 ± 0.19 mPa·s; mass density ([2]; 318.15 K): 785.2 ± 0.2 kg/m3; viscosity ([2]; 323.15 K): 1.33 ± 0.16 mPa·s; mass density ([2]; 323.15 K): 780.6 ± 0.2 kg/m3
CCCC(C)O (stereo not drawn) [pentan-2-ol],3.97 ± 0.48,809.3 ± 0.2,3.44 ± 0.41,805.3 ± 0.2,2.94 ± 0.35,801.2 ± 0.2,2.48 ± 0.3,797 ± 0.2,2.04 ± 0.25,792.7 ± 0.2,1.65 ± 0.2,788.4 ± 0.2,1.29 ± 0.16,784 ± 0.2,,,,,,,
CC(C)O [propan-2-ol] + Nc1ccccc1,,,,,,,,,,,,,,,2.42 ± 0.29,785.4 ± 0.2,2.08 ± 0.25,781.1 ± 0.2,1.8 ± 0.22,776.8 ± 0.2,viscosity ([2]; 308.15 K): 1.56 ± 0.19 mPa·s; mass density ([2]; 308.15 K): 772.4 ± 0.2 kg/m3; viscosity ([2]; 313.15 K): 1.36 ± 0.16 mPa·s; mass density ([2]; 313.15 K): 768 ± 0.2 kg/m3; viscosity ([2]; 318.15 K): 1.19 ± 0.14 mPa·s; mass density ([2]; 318.15 K): 763.4 ± 0.2 kg/m3; viscosity ([2]; 323.15 K): 1.05 ± 0.13 mPa·s; mass density ([2]; 323.15 K): 758.8 ± 0.2 kg/m3
CCCC(C)O (stereo not drawn) [pentan-2-ol] + Nc1ccccc1,,,,,,,,,,,,,,,3.97 ± 0.48,809.3 ± 0.2,3.44 ± 0.41,805.3 ± 0.2,2.94 ± 0.35,801.2 ± 0.2,viscosity ([2]; 308.15 K): 2.48 ± 0.3 mPa·s; mass density ([2]; 308.15 K): 797 ± 0.2 kg/m3; viscosity ([2]; 313.15 K): 2.04 ± 0.25 mPa·s; mass density ([2]; 313.15 K): 792.7 ± 0.2 kg/m3; viscosity ([2]; 318.15 K): 1.65 ± 0.2 mPa·s; mass density ([2]; 318.15 K): 788.4 ± 0.2 kg/m3; viscosity ([2]; 323.15 K): 1.29 ± 0.16 mPa·s; mass density ([2]; 323.15 K): 784 ± 0.2 kg/m3
